Results taken from US20260325654A1, “METHODS AND COMPOSITIONS FOR TARGETED PROTEIN DEGRADATION” (Ranok Therapeutics (Hangzhou) Co. Ltd., priority 2023, published 2026).
Structures can show the parent of a compound that is named as a salt.

Experiments:
SW1990 = assay: CellTiter-Glo Reagent cancer cell line proliferation assay, SW1990; type: cell-based; conditions: Homo sapiens; SW1990, KRAS(G12D) homozygous, 24 hr
From the text: (§1) The following cancer cell lines were employed: • AsPC-1 human pancreatic adenocarcinoma, homozygous KRAS(G12D), (ATCC, #CRL-1682); A-427 human lung carcinoma, heterozygous KRAS(G12D), (ATCC, #HTB-53); AGS human gastric adenocarcinoma, heterozygous KRAS(G12D), (ATCC, #CRL-1739); GP2D human colon adenocarcinoma, heterozygous KRAS(G12D), (Sigma Aldrich, 95090714); SW1990 human pancreatic adenocarcinoma, homozygous KRAS(G12D), (ATCC, #CRL2172); LU65A human lung giant cell carcinoma, heterozygous KRAS(G12C), (JCRB Cell Bank, #JCRB0054); NCIH727 human lung carcinoid, heterozygous KRAS(G12V), (ATCC, #CRL-5815); MKN1 human gastric adenosquamous carcinoma KRAS (wt), (JCRB Cell Bank, #JCRB0252). Cell lines were cultured according to ATCC, JCRB and Sigma Aldrich recommendations.
(§2) Cells were plated in 96-well tissue culture plates at 4,000 cells/well and incubated at 37° C./5% CO2 for 24 hr in 100 μl of media. 3-fold serial dilutions of each test compound were prepared ranging from 20 μM to 1.02 nM. Cells were then treated with test compounds at various concentrations with a final concentration of 0.5% DMSO/well, and then incubated at 37° C./5% CO2 for 24 hr. 100 μl of CellTiter-Glo® Reagent (Promega Corporation, Madison, WI) was added to each well and processed according manufacturer's protocol. Results were analyzed and IC50-values were calculated in GraphPad 7 software.

KRAS(G12D) [1] = target: T1, KRAS(G12D) (Homo sapiens, UniProt P01116, G12D); assay: cell-based; type: cell-based; set-up: Cell lines SW1990 and GP2D that express KRAS(G12D); host or cells: SW1990; conditions: for Dmax: SW1990, read-out: WB data SW1990 DMax; for DC50: read-out: WB data SW1990 DC50, SW1990, KRAS degradation, 24 hr
Protocol: Cell lines were cultured according to ATCC, JCRB and Sigma Aldrich recommendations.
(§3) Cells were then washed with cold PBS, aspirated and cold RIPA buffer containing a protease/phosphatase inhibitor cocktail was added to lyse cells. After centrifugation, the total protein concentrations of cell lysates were determined using the BCA protein assay. Samples were normalized for equivalent protein concentrations, 5× SDS-PAGE loading buffer added and denatured at 100° C. for 10 min. 20 μl of each sample/well was loaded on a SDS-PAGE gel and electrophoresed for 20 min at 80 V, then 120 V for 1.5 hr. Gels were then electroblotted to nitrocellulose membranes using a wet-transfer method at 250 mA for 2.5 hr. Membranes were incubated with blocking buffer for 1 hr and washed 3 times with TBST for 5 min. Membranes were then incubated with anti-KRAS (Sigma-Aldrich, #SAB1404011) and anti-β-Actin monoclonal antibodies (Cell Signaling Technology, #3700) diluted in blocking buffer at 4° C. overnight per the manufacturer's recommendations. After washing 3 times, blots were incubated with appropriately labeled secondary antibodies for 1 hr at room temperature and washed again. Fluorescence imaging and quantitation was performed using a LI-COR Odyssey. Results was analyzed using GraphPad Prism 7 software. Compound concentrations that induced KRAS degradation (DC50 and DCmax) were calculated using GraphPad Prism 7 software.
Target sequence in this assay (P01116 1-188 isoform P01116-2 G12D): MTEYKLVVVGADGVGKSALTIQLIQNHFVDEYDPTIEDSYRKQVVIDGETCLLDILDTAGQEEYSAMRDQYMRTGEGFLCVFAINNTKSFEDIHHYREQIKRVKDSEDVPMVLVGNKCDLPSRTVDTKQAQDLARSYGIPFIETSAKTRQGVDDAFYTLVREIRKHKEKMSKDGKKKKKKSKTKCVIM

AGS = assay: CellTiter-Glo Reagent cancer cell line proliferation assay, AGS; type: cell-based, human; conditions: Homo sapiens, 24 h, KRAS(G12D) heterozygous
Procedure, shortened: (§4)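 Cells were seeded at 4,000 per well, grown 24 hr at 37° C./5% CO2, then exposed 24 hr to 3-fold dilutions from 20 μM to 1.02 nM (0.5% DMSO final). Viability was read with CellTiter-Glo luminescence, and IC50 values were calculated.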

GP2D = assay: CellTiter-Glo Reagent cancer cell line proliferation assay, GP2D; type: cell-based; conditions: Homo sapiens, KRAS(G12D) heterozygous, 24 hr
From the text: as §1, §2

KRAS(G12D) [2] = target: T1, KRAS(G12D); assay: KRAS Western Blot Protein Degradation Assay, GP2D; type: cell-based; set-up: Cell lines SW1990 and GP2D that express KRAS(G12D); host or cells: GP2D; conditions: for Dmax: GP2d, read-out: WB data GP2D DMax; for DC50: read-out: WB data GP2D DC50, GP2D, KRAS degradation, 24 hr
From the text: as §1
as §3, with “Cell lines SW1990 and GP2D that express KRAS(G12D), LU65A that expresses KRAS(G12C), and NCIH727 that expresses KRAS(G12V) were seeded in 6- or 12-well tissue culture plates, and after 1 hr, test compounds were added at various concentrations and incubated at 37° C./5% CO2 for 24 hr. Cells” for “Cells”
Target sequence in this assay (P01116 1-185 isoform P01116-2 G12D limits assumed): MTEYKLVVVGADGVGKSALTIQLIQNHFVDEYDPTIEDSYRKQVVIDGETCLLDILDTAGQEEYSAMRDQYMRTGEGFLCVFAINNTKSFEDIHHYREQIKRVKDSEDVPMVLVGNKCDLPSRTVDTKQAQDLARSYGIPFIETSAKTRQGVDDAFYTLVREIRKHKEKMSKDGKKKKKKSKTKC

LU65A = assay: CellTiter-Glo Reagent cancer cell line proliferation assay, LU65A; type: cell-based, human; conditions: Homo sapiens, 24 h, KRAS(G12C) heterozygous
Procedure, shortened: as §4

NCIH727 = assay: CellTiter-Glo Reagent cancer cell line proliferation assay, NCIH727; type: cell-based, human; conditions: Homo sapiens, NCI-H727, 24 h, NCIH727, KRAS(G12V) heterozygous
Procedure, shortened: as §4

MKN1 = assay: CellTiter-Glo Reagent cancer cell line proliferation assay, MKN1; type: cell-based; conditions: Homo sapiens, MKN-1; MKN1, KRAS (wt), 24 hr
From the text: as §1, §2

KRAS(G12C) = target: T2, KRAS(G12C) (Homo sapiens, UniProt P01116, G12C); assay: KRAS Western Blot Protein Degradation Assay, LU65A; type: cell-based; conditions: 24 hr
T2 construct: LU65A that expresses KRAS(G12C); host or cells: LU65A
T2 sequence (P01116 1-185 isoform P01116-2 G12C limits assumed): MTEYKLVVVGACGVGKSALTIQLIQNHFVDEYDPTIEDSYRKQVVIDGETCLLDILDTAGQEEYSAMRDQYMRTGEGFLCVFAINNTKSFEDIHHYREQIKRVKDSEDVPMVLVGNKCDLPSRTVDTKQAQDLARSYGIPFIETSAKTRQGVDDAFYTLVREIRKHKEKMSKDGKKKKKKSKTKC
From the text: as §1
as §3, with “Cell lines SW1990 and GP2D that express KRAS(G12D), LU65A that expresses KRAS(G12C), and NCIH727 that expresses KRAS(G12V) were seeded in 6- or 12-well tissue culture plates, and after 1 hr, test compounds were added at various concentrations and incubated at 37° C./5% CO2 for 24 hr. Cells” for “Cells”

KRAS(G12V) = target: T3, KRAS(G12V) (Homo sapiens, UniProt P01116, G12V); assay: KRAS Western Blot Protein Degradation Assay, NCIH727; type: cell-based
T3 construct: anti-KRAS Western blot degradation by PROTACs recruiting CRBN or VHL
T3 sequence (P01116 1-188 isoform P01116-2 G12V): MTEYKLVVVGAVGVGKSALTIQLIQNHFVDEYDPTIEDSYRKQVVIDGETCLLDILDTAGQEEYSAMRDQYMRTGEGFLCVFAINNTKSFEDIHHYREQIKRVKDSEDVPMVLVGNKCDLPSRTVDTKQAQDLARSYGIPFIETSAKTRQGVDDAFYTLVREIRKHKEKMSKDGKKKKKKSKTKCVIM
From the text: as §1
as §3, with “Cell lines SW1990 and GP2D that express KRAS(G12D), LU65A that expresses KRAS(G12C), and NCIH727 that expresses KRAS(G12V) were seeded in 6- or 12-well tissue culture plates, and after 1 hr, test compounds were added at various concentrations and incubated at 37° C./5% CO2 for 24 hr. Cells” for “Cells”

Compound	IC50 (SW1990) [nM]	Dmax (KRAS(G12D) [1]) [%]	DC50 (KRAS(G12D) [1]) [nM]	IC50 (AGS) [nM]	IC50 (GP2D) [nM]	Dmax (KRAS(G12D) [2]) [%]	DC50 (KRAS(G12D) [2]) [nM]	further results
C#Cc1c(F)ccc2cc(O)cc(-c3ncc4c(N5CC6CCC(C5)N6C(=O)C(F)(F)F)nc(OCC5(CN6CCN(CC7CCN(c8ccc9c(c8)CN(C8CCC(=O)NC8=O)C9=O)CC7)CC6)CC5)nc4c3F)c12 (centres unmarked) [Compound 78]	< 100	10 to 50	100 to 1000	–	–	–	–	–
C#Cc1c(F)ccc2cc(O)cc(-c3ncc4c(N5CC6CCC(C5)N6)nc(OCC5(CN6CCN(CC7CCN(c8ccc9c(=O)n(C%10CCC(=O)NC%10=O)ncc9c8)CC7)CC6)CC5)nc4c3F)c12 (centres unmarked) [Compound 88]	< 100	10 to 50	> 1000	< 100	< 100	–	–	–
C#Cc1c(F)ccc2cc(O)cc(-c3ncc4c(N5CC6CCC(C5)N6)nc(OCC5(CN6CCN(CC#Cc7ccc8c(c7)CN(C7CCC(=O)NC7=O)C8=O)CC6)CC5)nc4c3F)c12 (centres unmarked) [Compound 89]	100 to 1000	10 to 50	> 1000	< 100	< 100	–	–	–
C#Cc1c(F)ccc2cc(O)cc(-c3ncc4c(N5C[C@H]6CC[C@@H](C5)N6)nc(OCC5(CN6CC(C#Cc7ccc8c(c7)CN(C7CCC(=O)NC7=O)C8=O)C6)CC5)nc4c3F)c12 (stereo partly drawn) [Compound 90, 3-(5-((1-((1-(((4-((1R,5S)-3,8-diazabicyclo[3.2.1]octan-3-yl)-7-(8-ethynyl-7-fluoro-3-hydroxynaphthalen-1-yl)-8-fluoropyrido[4,3-d]pyrimidin-2-yl)oxy)methyl)cyclopropyl)methyl)azetidin-3-yl)ethynyl)-1-oxoisoindolin-2-yl) piperidine-2,6-dione formate]	< 100	10 to 50	> 1000	< 100	< 100	–	–	–
C#Cc1c(F)ccc2cc(O)cc(-c3ncc4c(N5CC6CCC(C5)N6)nc(OCC5(CN6CCC(C#Cc7ccc8c(c7)CN(C7CCC(=O)NC7=O)C8=O)CC6)CC5)nc4c3F)c12 (centres unmarked) [Compound 91]	100 to 1000	–	–	< 100	< 100	–	–	–
C#Cc1c(F)ccc2cc(O)cc(-c3ncc4c(N5C[C@H]6CC[C@@H](C5)N6)nc(OCC5(CN(C)Cc6ccc(C7CN(c8ccc9c(c8)CN(C8CCC(=O)NC8=O)C9=O)C7)cc6)CC5)nc4c3F)c12 (stereo partly drawn) [Compound 92, 3-(5-(3-(4-((((1-(((4-((1R,5S)-3,8-diazabicyclo[3.2.1]octan-3-yl)-7-(8-ethynyl-7-fluoro-3-hydroxynaphthalen-1-yl)-8-fluoropyrido[4,3-d]pyrimidin-2-yl)oxy)methyl)cyclopropyl)methyl)(methyl)amino)methyl)phenyl)azetidin-1-yl)-1-oxoisoindolin-2-yl) piperidine-2,6-dione formate]	< 100	–	–	< 100	< 100	–	–	–
O=CO.[2H]C([2H])([2H])Oc1nc(-c2cc(O)cc3ccc(F)c(C#C)c23)c(F)c2nc(OCC3(CN4CCN(CC5CCN(c6ccc7c(c6)CN(C6CCC(=O)NC6=O)C7=O)CC5)CC4)CC3)nc(N3CC4CCC(C3)N4CCC#N)c12 (centres unmarked) [Compound 95]	–	–	–	100 to 1000	< 100	< 10	> 1000	–
[2H]C([2H])([2H])Oc1nc(-c2cc(O)cc3ccc(F)c(C#C)c23)c(F)c2nc(OCC3(CN4CCN(CC5CCN(c6ccc7c(c6)CN(C6CCC(=O)NC6=O)C7=O)CC5)CC4)CC3)nc(N3CC4CCC(C3)N4CC(C)C)c12 (centres unmarked) [Compound 96]	–	–	–	> 1000	100 to 1000	10 to 50	> 1000	–

More lines, main results first:

IC50 (SW1990) [nM]	Dmax (KRAS(G12D) [1]) [%]	DC50 (KRAS(G12D) [1]) [nM]	IC50 (AGS) [nM]	IC50 (GP2D) [nM]	Dmax (KRAS(G12D) [2]) [%]	DC50 (KRAS(G12D) [2]) [nM]	Compound	further results
–	–	–	< 100	< 100	> 50	< 100	O=CO.[2H]C([2H])([2H])Oc1nc(-c2cc(O)cc3ccc(F)c(C#C)c23)c(F)c2nc(OCC3(CN4CCN(CC5CCN(c6ccc7c(c6)CN(C6CCC(=O)NC6=O)C7=O)CC5)CC4)CC3)nc(N3CC4CCC(C3)N4CC#N)c12 (centres unmarked) [Compound 94]	–
–	–	–	100 to 1000	100 to 1000	10 to 50	> 1000	[2H]C([2H])([2H])Oc1nc(-c2cc(O)cc3ccc(F)c(C#C)c23)c(F)c2nc(OCC3(CN4CCN(CC5CCN(c6ccc7c(c6)CN(C6CCC(=O)NC6=O)C7=O)CC5)CC4)CC3)nc(N3CC4CCC(C3)N4CC(F)(F)F)c12 (centres unmarked) [Compound 97]	–
–	–	–	< 100	< 100	> 50	< 100	O=CO.[2H]C([2H])([2H])Oc1nc(-c2cc(O)cc3ccc(F)c(C#C)c23)c(F)c2nc(OCC3(CN4CCN(CC5CCN(c6ccc7c(c6)CN(C6CCC(=O)NC6=O)C7=O)CC5)CC4)CC3)nc(N3CC4CCC(C3)N4CCO)c12 (centres unmarked) [Compound 98]	–
–	–	–	< 100	< 100	–	–	O=CO.[2H]C([2H])([2H])Oc1nc(-c2cc(O)cc3ccc(F)c(C#C)c23)c(F)c2nc(OCC3(CN4CCN(CC5CCN(c6ccc7c(c6)CN(C6CCC(=O)NC6=O)C7=O)CC5)CC4)CC3)nc(N3CC4CCC(C3)N4C(=O)CC(C)C#N)c12 (centres unmarked) [Compound 115]	IC50 (LU65A): < 100 nM; IC50 (NCIH727): < 100 nM; IC50 (MKN1): > 1000 nM; DC50 (KRAS(G12C); read-out: WB data LU65A DC50): < 100 nM; Dmax (KRAS(G12C); read-out: WB data LU65A DMax): > 50%; DC50 (KRAS(G12V); 24 hr, read-out: WB data NCIH727 DC50): < 100 nM; Dmax (KRAS(G12V); NCI-H727, 24 hr, read-out: WB data NCIH727 DMax): > 50%
